{"source": "patent US10544468B2", "about": "“Molecular markers and phenotypic screening for metribuzin tolerance” (Monsanto Technology LLC, priority 2012, dated 2020)", "tested_on": "soybeans", "experiment": "Field screening for metribuzin tolerance in soybeans (injury rating, 1-9 scale)", "type": "in vivo, Glycine max", "conditions": "soybean lines containing a heterozygous (CT) allele of NGMAX006079502", "procedure": "A rating scale that evaluates the degree of metribuzin sensitivity can also be employed to identify “metribuzin sensitive” and “metribuzin tolerant” plants. An exemplary and non-limiting scale for evaluating the Metribuzin sensitivity phenotype is as follows, where a low number corresponds to a “metribuzin tolerance” phenotype and the a high number correlates to a “metribuzin sensitivity” phenotype: Field screening for metribuzin tolerance in soybeans was performed at the Monsanto Company Soybean Research Station near Mount Olive, N.C. in 2010 and 2011. Metribuzin application rate was 0.5 lbs/acre metribuzin (Sencor®, Bayer Crop Science, Research Triangle Park, N.C., USA) one day prior to planting. Rows were planted as single 6′ row plots with 9 seed per foot. Multiple repetitions were grown per row. Within 24 hours after planting, the trial was irrigated with 0.5″ of water to help incorporate and activate the herbicide. Injury ratings were taken fourteen to twenty one (14-21) days after planting using a 1-9 scale (for example, 1=no damage, 9=completely killed). After identifying the target region through the mapping population described in Example 2, a molecular marker was identified. An association study was done using a soybean molecular marker database. […]"}
{"smiles": "CSc1nnc(C(C)(C)C)c(=O)n1N", "note": "[Metribuzin, 4-Amino-6-(1,1-dimethylethyl)-3-(methylthio)-1,2,4-triazin-5(4H)-one]", "values": [{"measurement": "metribuzin phenotype in the field", "value": "mixed phenotype of both tolerance and sensitivity"}]}
